Measured values: patent publication US5208227A, “Method, compositions, and compounds for modulating brain excitability” (priority 1991, dated 1993)

Columns and labels:
[1] = system: GBR complex ([35S]TBPS site); assay: dissociation kinetics of [35S]TBPS in cortical P2 homogenates; format: binding, rat; conditions: for effect on dissociation mechanism/kinetics of [35S]TBPS (in words): pentobarbital 30 micromolar, alphaxalone 300 nanomolar, 5-alpha-pregnan-3-alpha-hydroxy-20-one 20 nanomolar
Experimental: An assay was performed to determine the effect of pentobarbital on the dissociation kinetics of [^35 S]TBPS in rat cerebral cortical membranes. This assay was performed in accordance with the procedures outlined above. […] Dissociation of bound [^35 S]TBPS was initiated by 2 micromolar TBPS in all cases.

BZ receptor = assay: modulation of [3H] flunitrazepam binding; set-up: species or system rat; conditions: pentobarbital 1.0 millimolar; 0.25 nM [3H]FLU; absence of GABA
[2] = system: metrazol-induced convulsions in mice; assay: metrazol-induced convulsions; format: in vivo; conditions: Mus musculus, metrazol 85 mg/kg, 95% confidence limits, read-out: MTZ (metrazol) ED50
Experimental: (§1) Experiments were also performed to determine the physiological relevance of these interactions by measuring the ability of the compounds of and used in the invention to modulate TBPS-induced convulsions in Swiss-Webster mice. […] The time to onset of myoclonus (presence of forelimb clonic activity) induced by TBPS was determined by observing each mouse for a period of 45 minutes. Significant differences between the time to onset in control mice vs. steroid-treated mice were determined by Student's t-test. […] The number of animals with tonic and/or clonic convulsions was recorded. In the maximal electroshock test, 50 mA of current at 60 Hz was delivered through corneal electrodes for 200 msec. […] The ED50 (the dose at which the half-maximal effect occurs) dose was determined for each screen.

[3] = system: (+)bicuculline-induced seizures in mice; assay: animal or person; format: in vivo
Experimental: as §1

[4] = system: picrotoxin-induced convulsions in mice; assay: picrotoxin-induced convulsions; format: in vivo; conditions: Mus musculus, read-out: PICRO (picrotoxin) ED50
Experimental: as §1

[5] = system: strychnine-induced convulsions in mice; assay: strychnine-induced convulsions; format: in vivo; conditions: Mus musculus, read-out: STR (strychnine) ED50
Experimental: as §1

progesterone receptor = molecular target: T1, progesterone receptor (Rattus norvegicus, UniProt Q63449); assay: [3H]R5020 binding to the progesterone receptor in rat uterus; conditions: FIG. 5
T1 sequence (Q63449 1-923): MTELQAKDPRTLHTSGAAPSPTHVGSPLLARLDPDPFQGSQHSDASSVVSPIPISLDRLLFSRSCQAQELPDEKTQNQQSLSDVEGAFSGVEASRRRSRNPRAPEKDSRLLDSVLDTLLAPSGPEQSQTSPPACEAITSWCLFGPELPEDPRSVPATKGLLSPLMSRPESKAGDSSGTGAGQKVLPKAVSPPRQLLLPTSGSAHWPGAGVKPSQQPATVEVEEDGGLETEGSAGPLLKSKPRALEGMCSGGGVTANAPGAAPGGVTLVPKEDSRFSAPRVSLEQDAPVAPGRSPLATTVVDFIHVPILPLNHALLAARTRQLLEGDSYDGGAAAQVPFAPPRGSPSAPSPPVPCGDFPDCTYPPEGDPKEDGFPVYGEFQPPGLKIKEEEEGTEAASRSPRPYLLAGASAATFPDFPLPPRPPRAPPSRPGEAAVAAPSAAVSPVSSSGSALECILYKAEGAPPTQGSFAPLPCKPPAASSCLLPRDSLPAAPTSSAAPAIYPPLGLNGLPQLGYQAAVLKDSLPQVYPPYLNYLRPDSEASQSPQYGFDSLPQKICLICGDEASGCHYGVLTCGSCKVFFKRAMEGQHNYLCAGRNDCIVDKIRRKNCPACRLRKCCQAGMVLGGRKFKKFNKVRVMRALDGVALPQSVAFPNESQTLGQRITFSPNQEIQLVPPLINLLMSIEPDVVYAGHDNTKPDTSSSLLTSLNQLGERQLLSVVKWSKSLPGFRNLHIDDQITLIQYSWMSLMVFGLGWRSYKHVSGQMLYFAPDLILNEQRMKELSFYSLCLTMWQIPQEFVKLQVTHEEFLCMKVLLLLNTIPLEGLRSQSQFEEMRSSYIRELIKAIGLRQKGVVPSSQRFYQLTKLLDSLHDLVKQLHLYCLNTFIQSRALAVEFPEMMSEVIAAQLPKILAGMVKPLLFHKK
Text: The data plotted in FIG. 5 were obtained by performing assays in accordance with the procedures outlined above to determine the effect of progesterone metabolites and the progestin R5020 on the binding of [^3 H]R5020 to the progesterone receptor in rat uterus. All points on the plot of FIG. 5 represent the mean of triplicate determinations. The following compounds are those listed in FIG. 5: 5-alpha-pregnan-3-alpha-ol-20-one (DHP), 5-alpha-pregnan-3-alpha,21-diol-20-one (Th-DOC), and 5-beta-pregnane-3-alpha,20 diol (5 BETA).

acute LD50 = conditions: mouse, in vivo
mice [6] = assay: acute LD50; conditions: mice
mice [7] = assay: rotorod test (sedative potential)

CC(=O)[C@H]1CC[C@H]2[C@@H]3CC[C@H]4C[C@H](O)CC[C@]4(C)[C@H]3CC[C@]12C [3α-hydroxy-5α-pregnan-20-one]
Total percentage of specific sites, rapidly dissociating (R) ([1]; (**P < 0.01 vs control), alphaxalone 300 nM, 3a-OH-DHP 20 nM): 35 ± 3 percentage
Total percentage of specific sites, slowly dissociating (S) ([1]; (*P < 0.05 vs control), alphaxalone 300 nM, 3a-OH-DHP 20 nM): 68 ± 3 percentage
k-1, slowly dissociating component (S) ([1]; [35S]TBPS dissociation, pentobarbital 30 nM [sic], alphaxalone 300 nM, 3a-OH-DHP 20 nM): 0.011 min⁻¹
effect on dissociation mechanism/kinetics of [35S]TBPS (in words) [1]: absent
effect on dissociation mechanism/kinetics of [35S]TBPS (in words) ([1]; listed as 5-alpha-pregnan-3-alpha-ol-20-one): do not influence the dissociation kinetics
interaction with pentobarbital in enhancement of [3H] flunitrazepam binding (BZ receptor): does not interact with pentobarbital
ED50 [2]: 18.8 ± 1.1 mg/kg
ED50 ([3]; Mus musculus, (+)bicuculline 2.7 mg/kg, 95% confidence limits, read-out: BIC (bicuculline) ED50): 4.1 ± 1.7 mg/kg
anticonvulsant effectiveness (in words) ([3]; compared with clinically useful anticonvulsants, Table 3): highly effective with a profile similar to that of the benzodiazepine clonazepam
ED50 [4]: 31.7 ± 1.1 mg/kg
ED50 [5]: > 300 mg/kg
affinity for the progesterone receptor (progesterone receptor): lack of affinity
LD50 (acute LD50): > 500 mg/kg
toxicity (in words) (mice [6]): very low toxicity
sedative liability at anticonvulsant doses (mice [7]; ED50 rotorod versus (+)bicuculline-induced seizures): low
Rotorod (RR) ED50 (mice [7]; mice, 10 minutes after injection, 6 rpm rod): 40-100
